Laboratory results: patent publication US11191854B2, “Pharmacokinetic enhancements of bifunctional chelates and uses thereof” (Centre for Probe Development and Commercialization, priority 2017, dated 2021)

Experiment: Metabolic excretion study (urine and feces collection in metabolic cages) of 177Lu-labelled human IgG conjugates
Type: in vivo, mice (normal CD-1 or athymic CD-1 nude)
Settings: mice, intravenous, 7 day period; tested as [177Lu]-HuMIgG conjugates
Experimental: Groups of 4 or 5 mice (normal CD-1 or athymic CD-1 nude) were injected intravenously with approximately 15 microcuries of radiolabelled test compound. Test compounds with various linkers were synthesized and radiolabelled with lutetium-177. For pharmacokinetic studies, animals were sacrificed at specific time points, and blood and tumor (when applicable) were analyzed for total radioactivity. For metabolism studies, animals were placed in metabolic cages (4-5 per cage) for urine and feces collection every 24 hours for up to 7 days. The radioactive content of urine and feces samples was quantified and converted to total urine or feces output based on weight. Excretion profiles for urine, feces, or total excretion (urine+feces) were generated by plotting cumulative % injected dose (%ID) over time.
The human IgG preparation used consisted of a purified mixture of all IgG isotypes (IgG1-4).

| Compound | total excretion of radioactivity compared to Compound A-HuMIgG |
| --- | --- |
| O=C(O)CN1CCN(CC(=O)O)CCN(C(CCC(=O)NCCCCCCCCCCC(=O)Oc2c(F)c(F)cc(F)c2F)C(=O)O)CCN(CC(=O)O)CC1 (centres unmarked) [Compound B, 4-{[11-oxo-11-(2,3,5,6-tetrafluorophenoxy)undecyl]carbamoyl}-2-[4,7,10-tris(carboxymethyl)-1,4,7,10-tetraazacyclododecan-1-yl]butanoic acid] | increased the amount total excretion of radioactivity |
| O=C(O)CN1CCN(CC(=O)O)CCN(C(CCC(=O)NCCOCCOCCOCCC(=O)Oc2c(F)c(F)cc(F)c2F)C(=O)O)CCN(CC(=O)O)CC1 (centres unmarked) [Compound C, 4-{[2-(2-{2-[3-oxo-3-(2,3,5,6-tetrafluorophenoxy)propoxy]ethoxy}ethoxy)ethyl]carbamoyl}-2-[4,7,10-tris(carboxymethyl)-1,4,7,10-tetraazacyclododecan-1-yl]butanoic acid] | increased the amount total excretion of radioactivity |
